Reference: patent publication US12550898B2, “Herbicide combinations comprising glufosinate and carfentrazone-ethyl” (BASF SE, priority 2020, dated 2026)

Columns and labels:
Chenopodium album = experiment: Greenhouse post-emergence herbicidal activity on Chenopodium album; format: in vivo; details: 0.654 g ai/ha
Excerpt: (§1) For the post-emergence treatment, the test plants were first grown to 3 to 4 inch (7.6 to 10.2 cm) tall, and only then treated. Here, the herbicidal compositions were suspended or emulsified in water as distribution medium and sprayed using finely distributing nozzles.
(§2) The herbicide compounds applied in the examples were used as commercially available formulations which have been diluted with deionized water to a suitable concentration.
(§3) Carfentrazone (commercial product name: Aim) was used as an emulsifiable concentrate having an active ingredient concentration of 240 g/l. Glufosinate (commercial product name: Liberty) was used as an aqueous soluble liquid of glufosinate ammonium having an active ingredient concentration of 280 g/l. Adjuvants of ammonium sulfate (AMS) and non-ionic surfactant (NIS) were added in all treatments. AMS and NIS were AMS Liquid and Induce at rates of 1680 g/ha and 0.25% (v/v), respectively.
(§4) The test period extended over 28 days after treatment (DAT). During this time, the plants were tended and their response to the individual treatments was evaluated.
(§5) The evaluation for the damage caused by the chemical compositions was carried out using a scale from 0 to 100%, compared to the untreated control plants. Here, 0 means no damage and 100 means complete destruction of the plants.
(§6) The plants used in the greenhouse experiments belonged to the following species:
(§7) 22 ff. E=X+Y−(X·Y/100) • where X=effect in percent using carfentrazone at an application rate a; • Y=effect in percent using glufosinate at application rate b; • E=expected effect (in %) of carfentrazone plus glufosinate at application rates a+b.
(§8) The value E corresponds to the effect (plant damage or injury) which is to be expected if the activity of the individual compounds is just additive. If the observed effect is higher than the value E calculated according to Colby, a synergistic effect is present.

Echinochloa crus-galli = experiment: Greenhouse post-emergence herbicidal activity on Echinochloa crus-galli; format: in vivo; details: 0.654 g ai/ha, scale 0-100, AMS + NIS added
Excerpt: as §1, §2, §3, §4, §5, §6, §7, §8

## CCOC(=O)C(Cl)Cc1cc(-n2nc(C)n(C(F)F)c2=O)c(F)cc1Cl (stereo not drawn) [Carfentrazone, carfentrazone-ethyl]
Chenopodium album; 7 DAT, scale 0 (no damage) to 100 (complete destruction), AMS + NIS added
  Solo Carfentrazone % activity: 30%
Chenopodium album; 14 DAT, scale 0-100, AMS + NIS added
  Solo Carfentrazone % activity: 30%
Chenopodium album; 21 DAT, scale 0-100, AMS + NIS added
  Solo Carfentrazone % activity: 35%
Echinochloa crus-galli; 7 DAT
  Solo Carfentrazone % activity: 30%
Echinochloa crus-galli; 14 DAT
  Solo Carfentrazone % activity: 18%
Echinochloa crus-galli; 21 DAT
  Solo Carfentrazone % activity: 25%
